Measurements reported in ChEMBL document CHEMBL6103650, “Hybrid Molecules of Benzothiazole and Hydroxamic Acid as Dual-Acting Biofilm Inhibitors with Antibacterial Synergistic Effect against Pseudomonas aeruginosa Infections” (J Med Chem, 2025).
Calls of active or inactive are those of the source. The calls are words filed in the database; no cut-off is given here.

Assays:
Pseudomonas aeruginosa [1] = test: Antibiofilm activity against Pseudomonas aeruginosa PA1167 assessed as inhibition of biofilm formation incubated for 24 hrs by crystal violet staining based analysis; type: functional, organism-based
Pseudomonas aeruginosa [2] = test: Anti-motility activity against Pseudomonas aeruginosa PAO1 assessed as reduction in swimming motility at 10 uM incubated for 24 hrs relative to control; type: functional; design: scale not given: the % may be the effect or the level left
Pseudomonas aeruginosa [3] = test: Antibacterial activity against Pseudomonas aeruginosa PAO1 infected in BALB/c mouse wound infection model assessed as reduction in wound area at 2.5 uM administered to wound once a day for 3 days and measured after 9 days in dropwise manner; type: functional; design: scale not given: the % may be the effect or the level left; settings: time 12 day
Pseudomonas aeruginosa [4] = test: Antibiofilm activity against Pseudomonas aeruginosa PAO1 assessed as fold increase in pyoverdine level at 10 uM incubated for 2 hrs by fluorescence based analysis; type: functional
Pseudomonas aeruginosa [5] = test: Anti-motility activity against Pseudomonas aeruginosa PAO1 assessed as reduction in swarming motility at 10 uM incubated for 24 hrs relative to control; type: functional; design: scale not given: the % may be the effect or the level left
Pseudomonas aeruginosa [6] = test: Antibacterial activity against Pseudomonas aeruginosa PAO1 infected in BALB/c mouse wound infection model assessed as reduction in wound area at 2.5 uM administered to wound once a day for 3 days and measured after 9 days in dropwise manner in presence of ciprofloxacin; type: functional; design: scale not given: the % may be the effect or the level left; settings: time 12 day
[7] = Toxicity in BALB/c mouse wound infection model assessed as heart damage measured for 9 days by H and E staining based analysis; type: tissue-based; settings: in vivo, 216 h, time 9 day
[8] = Toxicity in BALB/c mouse wound infection model assessed as spleen damage measured for 9 days by H and E staining based analysis; type: tissue-based; settings: in vivo, 216 h, time 9 day
[9] = Toxicity in BALB/c mouse assessed as kidney damage by H and E staining based analysis; settings: in vivo
Pseudomonas aeruginosa [10] = test: Antivirulence activity in Pseudomonas aeruginosa PAO1 assessed as reduction in pyocyanin production incubated for 24 hrs; type: functional, organism-based; settings: dose 10.0 µM
Pseudomonas aeruginosa [11] = test: Antibiofilm activity against Pseudomonas aeruginosa PAO1 assessed as increase in pyochelin level incubated for 2 hrs by fluorescence based analysis; type: functional, organism-based; settings: dose 0.3125-10 µM
[12] = Toxicity in BALB/c mouse assessed as spleen damage by H and E staining based analysis; type: tissue-based; settings: in vivo
Pseudomonas aeruginosa [13] = test: Antibiofilm activity against Pseudomonas aeruginosa PA108 assessed as inhibition of biofilm formation incubated for 24 hrs by crystal violet staining based analysis; type: functional, organism-based
Pseudomonas aeruginosa [14] = test: Antibiofilm activity against Pseudomonas aeruginosa PAO1 assessed as decrease in colony forming counts incubated for 24 hrs by crystal violet staining based analysis; type: functional, organism-based; settings: dose 0.15625-2.5 µM
Pseudomonas aeruginosa [15] = test: Antibiofilm activity against Pseudomonas aeruginosa PAO1 assessed as decrease in biofilm formation incubated for 24 hrs by crystal violet staining based analysis; type: functional, organism-based; settings: dose 0.3125-10 µM
Pseudomonas aeruginosa [16] = test: Antibacterial activity against Pseudomonas aeruginosa PAO1 infected in BALB/c mouse wound infection model assessed as bacterial survival rate in wound at 2.5 uM administered to wound once a day for 3 days in dropwise manner in presence of tobramycin; type: functional; settings: PAO1, 72 h, time 3 day
Pseudomonas aeruginosa [17] = test: Antivirulence activity in Pseudomonas aeruginosa PAO1 assessed as reduction in elastase production at 10 uM incubated for 24 hrs relative to control; type: functional; design: scale not given: the % may be the effect or the level left
Pseudomonas aeruginosa [18] = test: Antibiofilm activity against Pseudomonas aeruginosa PAO1 assessed as reduction in pFe(III) content incubated for 24 hrs; type: functional
Pseudomonas aeruginosa [19] = test: Antibacterial activity against Pseudomonas aeruginosa PAO1 assessed as inhibition of bacterial growth incubated for 24 hrs by serial dilution method; type: functional
Pseudomonas aeruginosa [20] = test: Antibiofilm activity against Pseudomonas aeruginosa PAO1 assessed as inhibition of biofilm formation at 0.15625 uM incubated for 24 hrs by crystal violet staining based analysis relative to control; type: functional
Pseudomonas aeruginosa [21] = test: Antivirulence activity in Pseudomonas aeruginosa PAO1 assessed as reduction in extracellular polysaccharides production at 10 uM incubated for 24 hrs relative to control; type: functional; design: scale not given: the % may be the effect or the level left
[22] = Hemolytic activity in mouse red blood cells at < 40 uM; type: toxicity, cell-based; settings: erythrocyte
[23] = Toxicity in BALB/c mouse wound infection model assessed as lung damage measured for 9 days by H and E staining based analysis; type: tissue-based; settings: in vivo, 216 h, time 9 day
[24] = Toxicity in BALB/c mouse wound infection model assessed as liver damage measured for 9 days by H and E staining based analysis; type: tissue-based; settings: in vivo, 216 h, time 9 day
Pseudomonas aeruginosa [25] = test: Antibiofilm activity against Pseudomonas aeruginosa PAO1 assessed as inhibition of biofilm formation at 2.5 incubated for 24 hrs by crystal violet staining based analysis; type: functional
Pseudomonas aeruginosa [26] = test: Antivirulence activity in Pseudomonas aeruginosa PAO1 assessed as reduction in extracellular polysaccharides production incubated for 24 hrs; type: functional, organism-based; settings: dose 0.3125-10 µM
Pseudomonas aeruginosa [27] = test: Antibiofilm activity against Pseudomonas aeruginosa PA14 assessed as inhibition of biofilm formation incubated for 24 hrs by crystal violet staining based analysis; type: functional, organism-based; settings: PA14, 24 h
Pseudomonas aeruginosa [28] = test: Antibiofilm activity against Pseudomonas aeruginosa PAO1 assessed as reduction in iron content at 10 uM incubated for 24 hrs by cell total iron colorimetric assay relative to control; type: functional; design: scale not given: the % may be the effect or the level left
Pseudomonas aeruginosa [29] = test: Antibiofilm activity against Pseudomonas aeruginosa PAO1 harboring pvds-deficient mutant assessed as inhibition of biofilm formation at 0.3125 to 10 uM incubated for 24 hrs by crystal violet staining based analysis; type: functional, organism-based; settings: dose 0.3125-10 µM
Pseudomonas aeruginosa [30] = test: Antibiofilm activity against Pseudomonas aeruginosa PAO1 overexpressing fpvA assessed as inhibition of biofilm formation at 0.3125 to 10 uM incubated for 24 hrs by crystal violet staining based analysis; type: functional, organism-based; settings: dose 0.3125-10 µM
Pseudomonas aeruginosa [31] = test: Antibiofilm activity against Pseudomonas aeruginosa PAO1 assessed as increase in pyoverdine level incubated for 2 hrs by fluorescence based analysis; type: functional, organism-based; settings: dose 0.3125-10 µM
[32] = Inhibition of quorum sensing system in Pseudomonas aeruginosa PAO1-gfp assessed as reduction in fluorescence intensity at 0.3125 to 10 uM measured upto 16 hrs by GFP reporter strain assay; settings: dose 0.3125-10 µM
[33] = Inhibition of quorum sensing system in Pseudomonas aeruginosa PAO1-lasB-gfp assessed as reduction in fluorescence intensity at 0.3125 to 10 uM measured upto 16 hrs by GFP reporter strain assay; settings: dose 0.3125-10 µM
Pseudomonas aeruginosa [34] = test: Antibiofilm activity against Pseudomonas aeruginosa PAO1 assessed as reduction in pFe(III) content incubated for 24 hrs by cell total iron colorimetric assay; type: functional, organism-based; settings: dose 0.3125-10 µM
[35] = Toxicity in BALB/c mouse assessed as lung damage by H and E staining based analysis; settings: in vivo
Pseudomonas aeruginosa [36] = test: Antibiofilm activity against Pseudomonas aeruginosa PAO1 assessed as inhibition of biofilm formation at 0.15625 to 2.5 uM incubated for 24 hrs by crystal violet staining based analysis; type: functional, organism-based; settings: dose 0.15625-2.5 µM
Pseudomonas aeruginosa [37] = test: Antibacterial activity against Pseudomonas aeruginosa PAO1 infected in BALB/c mouse wound infection model measured after 3 days; type: functional, organism-based; settings: time 3.0 day
Pseudomonas aeruginosa [38] = test: Antibacterial activity against Pseudomonas aeruginosa PAO1 infected in BALB/c mouse wound infection model assessed as bacterial survival rate in wound at 2.5 uM administered to wound once a day for 3 days in dropwise manner in presence of ciprofloxacin; type: functional; settings: PAO1, 72 h, time 3 day
Pseudomonas aeruginosa [39] = test: Synergistic […] activity against Pseudomonas aeruginosa PAO1 assessed as fractional inhibitory concentration index measured for 20 hrs in presence of ciprofloxacin by microdilution checkboard assay; type: functional
Pseudomonas aeruginosa [40] = test: Antibiofilm activity against Pseudomonas aeruginosa PAO1 assessed as inhibition of biofilm formation incubated for 24 hrs by crystal violet staining based analysis; type: functional, organism-based
Pseudomonas aeruginosa [41] = test: Antibiofilm activity against Pseudomonas aeruginosa PAO1 assessed as fold increase in pyochelin level at 10 uM incubated for 2 hrs by fluorescence based analysis; type: functional

COc1ccc2nc(NCC(=O)NCCCCC(=O)NO)sc2c1
Activity (Pseudomonas aeruginosa [1]): Active
Activity (Pseudomonas aeruginosa [2]): 64%
Activity (Pseudomonas aeruginosa [3]): 55%
fold change (FC) (Pseudomonas aeruginosa [4]): 3.4
Activity (Pseudomonas aeruginosa [5]): 84%
Activity (Pseudomonas aeruginosa [6]): 38%
Activity [7]: Non-toxic
Activity [8]: Non-toxic
Activity [9]: Non-toxic
Activity (Pseudomonas aeruginosa [10]): Dose-dependent-effect
Activity (Pseudomonas aeruginosa [11]): Dose-dependent-effect
Activity [12]: Non-toxic
Activity (Pseudomonas aeruginosa [13]): Active
Activity (Pseudomonas aeruginosa [14]): Dose-dependent-effect
Activity (Pseudomonas aeruginosa [15]): Dose-dependent-effect
survival at 2.5 µM (Pseudomonas aeruginosa [16]): 0.97%
Activity (Pseudomonas aeruginosa [17]): 43%
Activity (Pseudomonas aeruginosa [18]): 19.61
MIC (Pseudomonas aeruginosa [19]): > 256 µM
inhibition at 0.1562 µM (Pseudomonas aeruginosa [20]): 40%
Activity (Pseudomonas aeruginosa [21]): 58%
Activity [22]: Non-toxic
Activity [23]: Non-toxic
Activity [24]: Non-toxic
inhibition (INH) (Pseudomonas aeruginosa [25]): 65%
Activity (Pseudomonas aeruginosa [26]): Dose-dependent-effect
IC50 (Pseudomonas aeruginosa [27]): 1.45 µM
Activity (Pseudomonas aeruginosa [28]): 57%
Activity (Pseudomonas aeruginosa [29]): No effect
Activity (Pseudomonas aeruginosa [30]): No effect
Activity (Pseudomonas aeruginosa [31]): Dose-dependent-effect
inhibition [32]: inactive
inhibition [33]: Active
Activity (Pseudomonas aeruginosa [34]): Dose-dependent-effect
Activity [35]: Non-toxic
Activity (Pseudomonas aeruginosa [36]): inactive
Activity (Pseudomonas aeruginosa [37]): No effect
survival at 2.5 µM (Pseudomonas aeruginosa [38]): 0.45%
fractional inhibitory concentration index (FICI) (Pseudomonas aeruginosa [39]): 0.25
Activity (Pseudomonas aeruginosa [40]): Dose-dependent-effect
IC50 (Pseudomonas aeruginosa [40]; PAO1, 24 h): 0.4 µM
fold change (FC) (Pseudomonas aeruginosa [41]): 1.7
